Reference: patent publication US4582639A, “Antitumor antibiotic compound” (priority 1984, dated 1986)
In brackets after ≈: the same amount, converted by molar mass. Bridge positions count the residues as written; N and C are the ends. Square brackets hold non-standard residues; d marks the D form. Peptide text beside a SMILES is read from it. I, II: the chains in the order shown. * marks the point of attachment. Quinaldoyl(3-OH) = O=C(c1nc2ccccc2cc1O)*; NMeV = CN[CH](C(=O)O)C(C)C; Pip = O=C(O)[CH]1CCCCN1; Sar = CNCC(=O)O

How the values were obtained:
[1] = test system: S. aureus (echinomycin resistant) A9628; assay: microbe, parasite or virus in culture; assay type: cell-based; details: Staphylococcus aureus, read-out: Minimum Inhibitory Concentration (MIC)
Protocol: The antibacterial activities of sandramycin were determined by a serial two-fold agar dilution method.

[2] = test system: gram-positive organisms such as Bacillus subtilis and Staphylococcus aureus as well as Streptococcus faecalis; assay: serial two-fold agar dilution, antibacterial activity in words; assay type: cell-based
Protocol: (§1) The antibacterial activities of sandramycin were determined by a serial two-fold agar dilution method. The results are shown in Table 5 in comparison with the activities of luzopeptin A and echinomycin.

P-388 leukemia = assay: transplantable mouse tumor P-388 leukemia; assay type: in vivo, mouse (CDF1 female mice)
Protocol: The methodology used generally followed the protocols of the National Cancer Institute [Cancer Chemotherapy Rep. Part 3, 3, 1-103 (1972)]. The essential experimental details are given at the bottom of Table 6. Two different dose regimens were tested: single dose on day 1 and daily for 5 days. With both schedules, the optimum dose appears to be about 0.2 mg/kg/injection.
Tumor inoculum: 10^6 ascites cells implanted i.p.
Evaluation: MST=median survival time
Effect: % T/C≥(MST treated/MST control)×100
Criteria: % T/C=125 considered significant antitumor activity
AWC: average weight change (treated-control) in grams (on day 4)

[3] = test system: E. coli (actinomycin sensitive) A21780 (AS-19); assay: serial two-fold agar dilution, MIC; assay type: cell-based; details: Escherichia coli, read-out: Minimum Inhibitory Concentration (MIC)
Protocol: as §1

E. coli A15119 = assay: serial two-fold agar dilution, MIC; assay type: cell-based; details: Escherichia coli, read-out: Minimum Inhibitory Concentration (MIC)
Protocol: as §1

[4] = test system: B. subtilis (Rec. +) A22508-2; assay: serial two-fold agar dilution, MIC; assay type: cell-based; details: Bacillus subtilis; B. subtilis (Rec. +) A22508-2, agar dilution; read-out: Minimum Inhibitory Concentration (MIC)
Protocol: as §1

[5] = test system: B. subtilis (Rec. -) A22509-2-2; assay: serial two-fold agar dilution, MIC; assay type: cell-based; details: Bacillus subtilis; B. subtilis (Rec. -) A22509-2-2, agar dilution; read-out: Minimum Inhibitory Concentration (MIC)
Protocol: as §1

Strep. faecalis A9611 = assay: serial two-fold agar dilution, MIC; assay type: cell-based, Streptococcus faecalis; details: Enterococcus faecalis, read-out: Minimum Inhibitory Concentration (MIC)
Protocol: as §1

CC(C)C1C(=O)OCC(NC(=O)c2nc3ccccc3cc2O)C(=O)N2CCCCC2C(=O)NCC(=O)N(C)CC(=O)N(C)C(C(C)C)C(=O)OCC(NC(=O)c2nc3ccccc3cc2O)C(=O)N2CCCCC2C(=O)NCC(=O)N(C)CC(=O)N1C (centres unmarked) [Sandramycin] (I: {Quinaldoyl(3-OH)}-S[Pip]G[Sar][NMeV] / II: {Quinaldoyl(3-OH)}-S[Pip]G[Sar][NMeV]; ester I:1-II:C, I:C-II:1; configuration not given here)
MIC [1]: 0.098 µg/mL (≈ 0.0802 µM)
antibacterial activity [2]: strongly inhibitory
optimum dose (P-388 leukemia; IP, both schedules (single dose on day 1 and daily for 5 days)): about 0.2 mg/kg/injection
AWC Day 4 (P-388 leukemia; d. 1, IP, 0.025 mg/kg/inj.): -0.2 gm
MST (P-388 leukemia; d. 1, IP, 0.025 mg/kg/inj.): 9.5 days
MST % T/C (P-388 leukemia; d. 1, IP, 0.025 mg/kg/inj.): 106%
Survivors Day 5 (P-388 leukemia; d. 1, IP, 0.025 mg/kg/inj.): 6/6
AWC Day 4 (P-388 leukemia; d. 1, IP, 0.05 mg/kg/inj.): -0.6 gm
MST (P-388 leukemia; d. 1, IP, 0.05 mg/kg/inj.): 10.0 days
MST % T/C (P-388 leukemia; d. 1, IP, 0.05 mg/kg/inj.): 111%
Survivors Day 5 (P-388 leukemia; d. 1, IP, 0.05 mg/kg/inj.): 6/6
AWC Day 4 (P-388 leukemia; d. 1, IP, 0.1 mg/kg/inj.): -0.9 gm
MST (P-388 leukemia; d. 1, IP, 0.1 mg/kg/inj.): 11.0 days
MST % T/C (P-388 leukemia; d. 1, IP, 0.1 mg/kg/inj.): 122%
Survivors Day 5 (P-388 leukemia; d. 1, IP, 0.1 mg/kg/inj.): 6/6
AWC Day 4 (P-388 leukemia; d. 1, IP, 0.2 mg/kg/inj.): -1.4 gm
MST (P-388 leukemia; d. 1, IP, 0.2 mg/kg/inj.): 14.5 days
MST % T/C (P-388 leukemia; d. 1, IP, 0.2 mg/kg/inj.): 161%
Survivors Day 5 (P-388 leukemia; d. 1, IP, 0.2 mg/kg/inj.): 6/6
AWC Day 4 (P-388 leukemia; d. 1, IP, 0.4 mg/kg/inj.): -0.7 gm
MST (P-388 leukemia; d. 1, IP, 0.4 mg/kg/inj.): 11.0 days
MST % T/C (P-388 leukemia; d. 1, IP, 0.4 mg/kg/inj.): 122%
Survivors Day 5 (P-388 leukemia; d. 1, IP, 0.4 mg/kg/inj.): 6/6
AWC Day 4 (P-388 leukemia; d. 1, IP, 0.8 mg/kg/inj.): -1.6 gm
MST (P-388 leukemia; d. 1, IP, 0.8 mg/kg/inj.): 10.0 days
MST % T/C (P-388 leukemia; d. 1, IP, 0.8 mg/kg/inj.): 111%
Survivors Day 5 (P-388 leukemia; d. 1, IP, 0.8 mg/kg/inj.): 6/6
AWC Day 4 (P-388 leukemia; d. 1, IP, 1.6 mg/kg/inj.): -1.3 gm
MST (P-388 leukemia; d. 1, IP, 1.6 mg/kg/inj.): 11.5 days
MST % T/C (P-388 leukemia; d. 1, IP, 1.6 mg/kg/inj.): 128%
Survivors Day 5 (P-388 leukemia; d. 1, IP, 1.6 mg/kg/inj.): 6/6
AWC Day 4 (P-388 leukemia; d. 1, IP, 3.2 mg/kg/inj.): -2.8 gm
MST (P-388 leukemia; d. 1, IP, 3.2 mg/kg/inj.): Toxic
MST % T/C (P-388 leukemia; d. 1, IP, 3.2 mg/kg/inj.): Toxic
Survivors Day 5 (P-388 leukemia; d. 1, IP, 3.2 mg/kg/inj.): 0/6
AWC Day 4 (P-388 leukemia; d. 1→5, IP, 0.0125 mg/kg/inj.): -0.9 gm
MST (P-388 leukemia; d. 1→5, IP, 0.0125 mg/kg/inj.): 10.5 days
MST % T/C (P-388 leukemia; d. 1→5, IP, 0.0125 mg/kg/inj.): 117%
AWC Day 4 (P-388 leukemia; d. 1→5, IP, 0.025 mg/kg/inj.): -1.4 gm
MST (P-388 leukemia; d. 1→5, IP, 0.025 mg/kg/inj.): 10.0 days
MST % T/C (P-388 leukemia; d. 1→5, IP, 0.025 mg/kg/inj.): 111%
Survivors Day 5 (P-388 leukemia; d. 1→5, IP, 0.025 mg/kg/inj.): 5/5
AWC Day 4 (P-388 leukemia; d. 1→5, IP, 0.05 mg/kg/inj.): -1.8 gm
MST (P-388 leukemia; d. 1→5, IP, 0.05 mg/kg/inj.): 8.5 days
MST % T/C (P-388 leukemia; d. 1→5, IP, 0.05 mg/kg/inj.): 94%
Survivors Day 5 (P-388 leukemia; d. 1→5, IP, 0.05 mg/kg/inj.): 6/6
AWC Day 4 (P-388 leukemia; d. 1→5, IP, 0.1 mg/kg/inj.): -0.8 gm
MST (P-388 leukemia; d. 1→5, IP, 0.1 mg/kg/inj.): 11.5 days
MST % T/C (P-388 leukemia; d. 1→5, IP, 0.1 mg/kg/inj.): 128%
Survivors Day 5 (P-388 leukemia; d. 1→5, IP, 0.1 mg/kg/inj.): 6/6
AWC Day 4 (P-388 leukemia; d. 1→5, IP, 0.2 mg/kg/inj.): -1.7 gm
MST (P-388 leukemia; d. 1→5, IP, 0.2 mg/kg/inj.): 12.0 days
MST % T/C (P-388 leukemia; d. 1→5, IP, 0.2 mg/kg/inj.): 133%
Survivors Day 5 (P-388 leukemia; d. 1→5, IP, 0.2 mg/kg/inj.): 5/6
AWC Day 4 (P-388 leukemia; d. 1→5, IP, 0.4 mg/kg/inj.): -1.3 gm
MST (P-388 leukemia; d. 1→5, IP, 0.4 mg/kg/inj.): 11.0 days
MST % T/C (P-388 leukemia; d. 1→5, IP, 0.4 mg/kg/inj.): 122%
Survivors Day 5 (P-388 leukemia; d. 1→5, IP, 0.4 mg/kg/inj.): 6/6
AWC Day 4 (P-388 leukemia; d. 1→5, IP, 0.8 mg/kg/inj.): -1.4 gm
MST (P-388 leukemia; d. 1→5, IP, 0.8 mg/kg/inj.): 6.0 days
MST % T/C (P-388 leukemia; d. 1→5, IP, 0.8 mg/kg/inj.): 67%
Survivors Day 5 (P-388 leukemia; d. 1→5, IP, 0.8 mg/kg/inj.): 5/6
AWC Day 4 (P-388 leukemia; d. 1→5, IP, 1.6 mg/kg/inj.): -1.7 gm
MST (P-388 leukemia; d. 1→5, IP, 1.6 mg/kg/inj.): Toxic
MST % T/C (P-388 leukemia; d. 1→5, IP, 1.6 mg/kg/inj.): Toxic
Survivors Day 5 (P-388 leukemia; d. 1→5, IP, 1.6 mg/kg/inj.): 2/6
MIC [3]: 12.5 µg/mL (≈ 10.2 µM)
MIC (E. coli A15119): 12.5 µg/mL (≈ 10.2 µM)
MIC [4]: 0.024 µg/mL (≈ 0.0197 µM)
MIC [5]: 0.012 µg/mL (≈ 0.00983 µM)
MIC (Strep. faecalis A9611): 0.024 µg/mL (≈ 0.0197 µM)

COc1ccc2nc(C(=O)N[C@@H]3COC(=O)[C@H](C(C)(C)O)N(C)C(=O)CN(C)C(=O)CNC(=O)C4C(OC(C)=O)CC=NN4C(=O)[C@H](NC(=O)c4nc5ccc(OC)cc5cc4O)COC(=O)[C@H](C(C)(C)O)N(C)C(=O)CN(C)C(=O)CNC(=O)C4C(OC(C)=O)CC=NN4C3=O)c(O)cc2c1 (some centres unmarked) [Luzopeptin A]
MIC [1]: 0.098 µg/mL (≈ 0.0687 µM)
MIC [3]: 12.5 µg/mL (≈ 8.76 µM)
MIC (E. coli A15119): 12.5 µg/mL (≈ 8.76 µM)
MIC [4]: 0.195 µg/mL (≈ 0.137 µM)
MIC [5]: 0.049 µg/mL (≈ 0.0343 µM)
MIC (Strep. faecalis A9611): 0.195 µg/mL (≈ 0.137 µM)

CS[C@H]1SC[C@H]2C(=O)N(C)[C@@H](C(C)C)C(=O)OC[C@@H](NC(=O)c3cnc4ccccc4n3)C(=O)N[C@@H](C)C(=O)N(C)[C@@H]1C(=O)N(C)[C@@H](C(C)C)C(=O)OC[C@@H](NC(=O)c1cnc3ccccc3n1)C(=O)N[C@@H](C)C(=O)N2C [Echinomycin]
MIC [1]: 0.78 µg/mL (≈ 0.708 µM)
MIC [3]: 6.25 µg/mL (≈ 5.68 µM)
MIC (E. coli A15119): 12.5 µg/mL (≈ 11.4 µM)
MIC [4]: 0.049 µg/mL (≈ 0.0445 µM)
MIC [5]: < 0.003 µg/mL
MIC (Strep. faecalis A9611): 0.012 µg/mL (≈ 0.0109 µM)
